Assay results as given in US20200022370A1, “MICROBIOCIDAL OXADIAZOLE DERIVATIVES” (SYNGENTA PARTICIPATIONS AG, priority 2016, published 2020).

What was measured:
[1] = test system: Puccinia recondita f. Sp. Tritici; experiment: Puccinia recondita f. sp. tritici / wheat / leaf disc preventative (brown rust); format: in vivo; conditions: foliar, 200 ppm in the applied formulation, wheat leaf segments cv. Kanzler, inoculated 1 day after application, vs untreated, 7 to 9 days after application, read-out: disease control
Procedure, shortened: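 Segments of cv. Kanzler wheat on agar received a spray of compound formulation diluted in water and were inoculated with spores one day afterwards. Kept at 19° C and 75% rh under 12 h/12 h light; disease control relative to untreated checks rated at 7–9 days post-application.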

[2] = test system: Puccinia recondita f. Sp. Tritici; experiment: Puccinia recondita f. sp. tritici / wheat / leaf disc curative (brown rust); format: in vivo; conditions: foliar, 200 ppm in the applied formulation, wheat leaf segments cv. Kanzler, compound applied 1 day after inoculation, vs untreated, 6 to 8 days after application, read-out: disease control
Procedure, shortened: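 Wheat leaf segments (cv. Kanzler) on agar inoculated with brown rust spores, held dark at 19 °C/75% RH, then sprayed 1 day post-inoculation with formulated compound diluted in water (curative). Incubated at 19 °C/75% RH, 12 h light/12 h dark; percent disease control versus untreated scored 6–8 days after application.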

[3] = test system: Phakopsora pachyrhizi; experiment: Phakopsora pachyrhizi / soybean / leaf disc preventative (Asian soybean rust); format: in vivo; conditions: foliar, 200 ppm in the applied formulation, soybean leaf disks, inoculated one day after application, vs untreated, 12 to 14 days after application, read-out: disease control
Procedure, shortened: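 Soybean leaf discs on water agar sprayed with formulated compound diluted in water, then inoculated one day later with spore suspension on the lower surface. Held 24-36 h dark at 20 °C, 75% rh, then 12 h light/day; percent disease control versus untreated scored 12-14 days after application.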

[4] = test system: Glomerella lacenarium (Colletotrichum lacenarium); experiment: Glomerella lacenarium (Colletotrichum lacenarium) liquid culture / cucumber / preventative (anthracnose); format: cell-based; conditions: 20 ppm, liquid culture in PDB, 24° C., inhibition of growth measured photometrically 3 to 4 days after application, vs untreated, read-out: disease control
Procedure, shortened: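 Cryopreserved conidia in potato dextrose broth were added to test compound in a 96-well microtiter plate and incubated at 24 °C. Growth inhibition read photometrically 3–4 days after application, as percent activity versus untreated check.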

[5] = test system: Uromyces viciae-fabae; experiment: Uromyces viciae-fabae / field bean / leaf disc preventative (faba-bean rust); format: in vivo; conditions: foliar, 288 h, 100 ppm in the applied formulation, field bean leaf discs, inoculated two hours after application, vs untreated, 12 days after application, read-out: disease control
Description: Leaf disks or leaf segments of various plant species are cut from plants grown in a greenhouse. The cut leaf disks or segments are placed in multiwell plates (24-well format) onto water agar. The leaf disks are sprayed with a test solution before (preventative) or after (curative) inoculation. Compounds to be tested are prepared as DMSO solutions (max. 10 mg/ml) which are diluted to the appropriate concentration with 0.025% Tween20 just before spraying. The inoculated leaf disks or segments are incubated under defined conditions (temperature, relative humidity, light, etc.) according to the respective test system. A single evaluation of disease level is carried out 3 to 14 days after inoculation, depending on the pathosystem. Percent disease control relative to the untreated check leaf disks or segments is then calculated.
Example 5: Fungicidal Activity Against Uromyces viciae-fabael Field Bean/Leaf Disc Preventative (Faba-Bean Rust)
Field bean leaf discs are placed on water agar in multiwell plates (96-well format) and 10 μl of the Formulated test compound diluted in acetone and a spreader pipetted onto the leaf disc. Two hours after application leaf discs are inoculated by spraying a spore suspension on the lower leaf surface. The leaf discs are incubated in a climate cabinet at 22° C. with 18 hour day and 70% relative humidity. The activity of a compound is assessed as percent disease control compared to untreated when an appropriate level of disease damage appears in untreated check leaf disks (12 days after application).
The following compounds at 100 ppm in the applied Formulation give at least 80% disease control in this test when compared to untreated control leaf discs under the same conditions, which show extensive disease development.

Row | Structure (SMILES) | melting point [°C] | pest or weed control at 200 ppm [1] [%] | pest or weed control at 200 ppm [2] [%] | pest or weed control at 200 ppm [3] [%] | inhibition of growth at 20 ppm [4] [%] | pest or weed control at 100 ppm [5] [%]
1 | C#CC(C)(C)C(=O)Nc1ccc(-c2noc(C(F)(F)F)n2)cc1 [Compound 1.5, 2,2-dimethyl-N-[4-[5-(trifluoromethyl)-1,2,4-oxadiazol-3-yl]phenyl]but-3-ynamide] | – | ≥ 80 | ≥ 80 | ≥ 80 | ≥ 80 | ≥ 80
2 | O=C(Nc1ccc(-c2noc(C(F)(F)F)n2)cc1)c1cn[nH]c1 [Compound 1.11, N-[4-[5-(trifluoromethyl)-1,2,4-oxadiazol-3-yl]phenyl]-1H-pyrazole-4-carboxamide] | 200 to 204 | – | – | – | – | ≥ 80
3 | COC1=CC(=O)CC(C(=O)Nc2ccc(-c3noc(C(F)(F)F)n3)cc2)C1 (stereo not shown) [Compound 1.31, 3-methoxy-5-oxo-N-[4-[5-(trifluoromethyl)-1,2,4-oxadiazol-3-yl]phenyl]cyclohex-3-ene-1-carboxamide] | – | ≥ 80 | – | ≥ 80 | ≥ 80 | ≥ 80
4 | CC(=O)N(C(C)=O)c1ccc(-c2noc(C(F)(F)F)n2)cn1 [Compound 1.45, N-acetyl-N-[5-[5-(trifluoromethyl)-1,2,4-oxadiazol-3-yl]-2-pyridyl]acetamide] | – | ≥ 80 | ≥ 80 | ≥ 80 | ≥ 80 | ≥ 80
5 | CC(=O)N(CC(=O)NC(C)(C)C)c1ccc(-c2noc(C(F)(F)F)n2)cc1 [Compound 1.56, 2-[N-acetyl-4-[5-(trifluoromethyl)-1,2,4-oxadiazol-3-yl]anilino]-N-tert-butyl-acetamide] | – | ≥ 80 | ≥ 80 | – | ≥ 80 | ≥ 80
6 | COCC(=O)N(c1ccc(-c2noc(C(F)(F)F)n2)cc1)C(C)C(=O)NC(C)(C)C (stereo not shown) [Compound 1.62, N-tert-butyl-2-[N-(2-methoxyacetyl)-4-[5-(trifluoromethyl)-1,2,4-oxadiazol-3-yl]anilino] propanamide] | 115 to 117 | – | – | – | – | ≥ 80
7 | CONC(=O)Nc1ccc(-c2noc(C(F)(F)F)n2)cn1 [Compound 1.63, 1-methoxy-3-[5-[5-(trifluoromethyl)-1,2,4-oxadiazol-3-yl]-2-pyridyl]urea] | 151 to 154 | – | – | ≥ 80 | ≥ 80 | –
8 | CON(C)C(=O)Nc1ccc(-c2noc(C(F)(F)F)n2)cn1 [Compound 1.64, 1-methoxy-1-methyl-3-[5-[5-(trifluoromethyl)-1,2,4-oxadiazol-3-yl]-2-pyridyl]urea] | 83 to 87 | ≥ 80 | – | – | ≥ 80 | –
9 | CC(C)=CCONC(=O)Nc1ccc(-c2noc(C(F)(F)F)n2)cc1 [Compound 1.66, 1-(3-methylbut-2-enoxy)-3-[4-[5-(trifluoromethyl)-1,2,4-oxadiazol-3-yl]phenyl]urea] | 118 to 121 | ≥ 80 | – | – | ≥ 80 | –
10 | CN(C(=O)C1CCC1)c1ccc(-c2noc(C(F)(F)F)n2)cc1 [Compound 2.25, N-methyl-N-[4-[5-(trifluoromethyl)-1,2,4-oxadiazol-3-yl]phenyl]cyclobutane-carboxamide] | – | ≥ 80 | ≥ 80 | ≥ 80 | ≥ 80 | ≥ 80

Continued, in another order:

Row | melting point [°C] | Structure (SMILES) | pest or weed control at 200 ppm [1] [%] | pest or weed control at 200 ppm [2] [%] | pest or weed control at 200 ppm [3] [%] | inhibition of growth at 20 ppm [4] [%] | pest or weed control at 100 ppm [5] [%]
11 | 113 to 116 | CCN(OC)C(=O)Nc1ccc(-c2noc(C(F)(F)F)n2)cc1 [Compound 1.67, 1-ethyl-1-methoxy-3-[4-[5-(trifluoromethyl)-1,2,4-oxadiazol-3-yl]phenyl]urea] | ≥ 80 | ≥ 80 | ≥ 80 | ≥ 80 | –
12 | 89 to 92 | COCCN(OC)C(=O)Nc1ccc(-c2noc(C(F)(F)F)n2)cc1 [Compound 1.68, 1-methoxy-1-(2-methoxyethyl)-3-[4-[5-(trifluoromethyl)-1,2,4-oxadiazol-3-yl]phenyl]urea] | ≥ 80 | ≥ 80 | ≥ 80 | ≥ 80 | –
13 | 117 to 120 | CON(CC1CC1)C(=O)Nc1ccc(-c2noc(C(F)(F)F)n2)cc1 [Compound 1.69, 1-(cyclopropylmethyl)-1-methoxy-3-[4-[5-(trifluoromethyl)-1,2,4-oxadiazol-3-yl]phenyl]urea] | – | – | – | ≥ 80 | –
14 | 134 to 137 | C=C(C)CONC(=O)Nc1ccc(-c2noc(C(F)(F)F)n2)cc1 [Compound 1.70, 1-(2-methylallyloxy)-3-[4-[5-(trifluoromethyl)-1,2,4-oxadiazol-3-yl]phenyl]urea] | ≥ 80 | ≥ 80 | ≥ 80 | ≥ 80 | –
15 | 140 to 143 | O=C(NOCc1ccccc1F)Nc1ccc(-c2noc(C(F)(F)F)n2)cc1 [Compound 1.127, 1-[(2-fluorophenyl)methoxy]-3-[4-[5-(trifluoromethyl)-1,2,4-oxadiazol-3-yl]phenyl]urea] | – | – | – | ≥ 80 | –
16 | 164 to 167 | CON1CCN(C(=O)Nc2ccc(-c3noc(C(F)(F)F)n3)cc2)CC1 [Compound 1.130, 4-methoxy-N-[4-[5-(trifluoromethyl)-1,2,4-oxadiazol-3-yl]phenyl]piperazine-1-carboxamide] | ≥ 80 | ≥ 80 | ≥ 80 | ≥ 80 | –
17 | 65 to 68 | C=C(C)CON(C)C(=O)Nc1ccc(-c2noc(C(F)(F)F)n2)cc1 [Compound 1.131, 1-methyl-1-(2-methylallyloxy)-3-[4-[5-(trifluoromethyl)-1,2,4-oxadiazol-3-yl]phenyl]urea] | ≥ 80 | ≥ 80 | ≥ 80 | ≥ 80 | –
18 | 73 to 76 | CONC(=O)N(C)c1ccc(-c2noc(C(F)(F)F)n2)cc1 [Compound 1.132, 3-methoxy-1-methyl-1-[4-[5-(trifluoromethyl)-1,2,4-oxadiazol-3-yl]phenyl]urea] | ≥ 80 | ≥ 80 | – | ≥ 80 | –
19 | 78 to 86 | CCC(=O)N(C)c1ccc(-c2noc(C(F)(F)F)n2)cc1 [Compound 2.17, N-methyl-N-[4-[5-(trifluoromethyl)-1,2,4-oxadiazol-3-yl]phenyl] propanamide] | ≥ 80 | ≥ 80 | ≥ 80 | ≥ 80 | –
20 | 117 to 120 | O=C(Nc1ccc(-c2noc(C(F)(F)F)n2)cc1)N1CCCCO1 [Compound 2.23, N-[4-[5-(trifluoromethyl)-1,2,4-oxadiazol-3-yl]phenyl]oxazinane-2-carboxamide] | ≥ 80 | ≥ 80 | ≥ 80 | ≥ 80 | –
21 | 152 to 155 | CONC(=O)Nc1ccc(-c2noc(C(F)(F)F)n2)cc1 [Compound 2.30, 1-methoxy-3-[4-[5-(trifluoromethyl)-1,2,4-oxadiazol-3-yl]phenyl]urea] | ≥ 80 | – | – | ≥ 80 | –
